Data reported in article PMC9538324 (Journal of medical virology, 2022).
Like-named read-outs stand apart in the source and are kept apart here.

Experiments:
SARS-CoV-2 [1] = conditions: Huh7 cells; cited from earlier work
A549-ACE2 cells [2] = assay: cells; conditions: Homo sapiens, A549-ACE2, read-out: EC50 for PLD induction
Delta PV = type: cell-based, SARS-CoV-2
Vero cells = conditions: cited from earlier work
VSV-G = type: cell-based, Vesicular stomatitis virus
SARS-CoV-2 [3] = conditions: Calu-3 cells; cited from earlier work
SARS-CoV-2 [4] = conditions: A549-ACE2 cells; cited from earlier work
A549-ACE2 cells [5] = assay: MTT cell viability assay; conditions: 0.63 μM
SARS-CoV-2 [6] = conditions: Vero cells; cited from earlier work
Wuhan PV = type: cell-based, SARS-CoV-2
rVSV-EBOV = assay: microbe, parasite or virus in culture; type: cell-based, Ebola virus; conditions: Zaire ebolavirus, A549-ACE2, read-out: EC50 against rVSV-EBOV
Omicron PV = type: cell-based, SARS-CoV-2
[7] = test system: SARS-CoV-2 (USA-WA1 strain); assay: microbe, parasite or virus in culture; type: cell-based; conditions: Severe acute respiratory syndrome coronavirus 2, A549-ACE2, read-out: EC50 against SARS-CoV-2
A549-ACE2 cells [8] = test system: A549-ACE2 cells
in vitro = conditions: human
SARS-CoV-2 [9] = conditions: A549-ACE2 cells, RT-PCR and plaque assay, Institut Pasteur; cited from earlier work
SARS-CoV-2 [10] = conditions: Vero cells, anti-NP antibody, Mount Sinai; cited from earlier work
AXL = conditions: read-out: IC50 against AXL; cited from earlier work
A549-ACE2 cells [11] = conditions: A549-ACE2 infection assay
[12] = A549-ACE2 cells, compared with amodiaquine

| Structure (SMILES) | EC50 (SARS-CoV-2 [1]) | EC50 (A549-ACE2 cells [2]) | Delta PV infection compared to VSV-G (Delta PV) | CC50 (Vero cells) | VSV-G infection relative to the level in imatinib- or nintedanib-treated cells (VSV-G) | anti-SARS-CoV-2 activity (SARS-CoV-2 [3]) | lowest concentration tested showing inhibition of virus replication (SARS-CoV-2 [4]) | reduction of cell viability by MTT assay (A549-ACE2 cells [5]) | EC50 (SARS-CoV-2 [6]) | Wuhan PV infection compared to VSV-G (Wuhan PV) | EC50 (rVSV-EBOV) | infection inhibition against Omicron PV compared to VSV-G (Omicron PV) | EC50 [7] | PLD induction (in words) (A549-ACE2 cells [8]; [12]) | fold induction (in vitro) | EC50 (SARS-CoV-2 [9]) | EC50 (SARS-CoV-2 [10]) | IC50 (AXL) | PLD induction (in words) (A549-ACE2 cells [8]) | cytotoxicity (in words) (A549-ACE2 cells [11]) |
| --- | --- | --- | --- | --- | --- | --- | --- | --- | --- | --- | --- | --- | --- | --- | --- | --- | --- | --- | --- | --- |
| CCc1nc(C(N)=O)c(Nc2ccc(N3CCC(N4CCN(C)CC4)CC3)c(OC)c2)nc1NC1CCOCC1 [Gilteritinib, gilteritinib] | 200 nM | 390 nM | small decrease | 37200 nM | around 50% | no detectable activity | 0.5 µM | approximately 30% | 6750 nM | small decrease | 250 nM | significant infection inhibition | ~100 nM | induces a small amount of PLD | 15 | 60 to 120 nM | ~800 nM | 41 nM |  |  |
| Cc1ccc(NC(=O)c2ccc(CN3CCN(C)CC3)cc2)cc1Nc1nccc(-c2cccnc2)n1 [Imatinib, imatinib] |  |  |  |  |  |  |  |  |  |  |  |  |  |  |  |  |  |  | strong PLD inducers |  |
| COC(=O)c1ccc2c(c1)NC(=O)/C2=C(\Nc1ccc(N(C)C(=O)CN2CCN(C)CC2)cc1)c1ccccc1 [Nintedanib, nintedanib] |  |  |  |  |  |  |  |  |  |  |  |  |  | strong PLD inducers |  |  |  |  |  | little cytotoxicity |
